Laboratory results as given in PMC10734441, “Comparative biodegradation analysis of three compostable polyesters by a marine microbial community” (Applied and Environmental Microbiology, 2023).

What was measured:
Assay in all cases: 4-nitrophenol release, absorbance at […] nm, nonlinear regression
Assay type in all cases: biochemical, Pseudomonas sp. (bin 31)
Settings in all cases: phosphate-buffered saline pH 7.4; 20°C (methods: room temperature); 0.1-2.4 mM substrate
Ple-tan1 = system: T1, Ple-tan1
T1 construct: codon-optimized synthetic gene in pCold II, E. coli Origami (DE3), His-tag purified plus size exclusion

Ple-tan2 = system: T2, Ple-tan2
T2 construct: codon-optimized synthetic gene in pCold II, E. coli Origami (DE3), His-tag purified

Ple-solo = system: T3, Ple-solo
T3 construct: codon-optimized synthetic gene in pCold II, E. coli Origami (DE3), His-tag purified plus size exclusion

Km (Ple-tan1): 454 ± 54 µM | Km (Ple-tan2): 1420 ± 94 µM | Km (Ple-solo): 254 ± 55 µM
Compound: CCCC(=O)Oc1ccc([N+](=O)[O-])cc1 [para-nitrophenyl butyrate]
